In patent publication US5236927A, “Anti-cancer quinazoline derivatives” (National Research Development Corporation, priority 1985, dated 1993):
Values joined by “and” are separate entries in the source; they are usually repeats but may differ in a detail not shown here. Equal values may be shown once. Read-outs that look alike come from different tables or passages of the source.

Legend:
L1210/C15 cells = test: L1210/C15 cell culture growth inhibition (overproduces TS 45-fold); format: cell-based; details: 48 hours; at 100 uM
Description: Cell counts after 48 hours of incubation were obtained by Coulter counting.

alanine transaminase [1] = details: rat, in vivo
Description: (§2) During and after the infusion blood and bile samples were collected. Four hours after the experiment the rats were sacrificed and the urine collected from the bladder and the liver and kidneys removed.
(§3) Samples of plasma were also analysed for alanine transaminase.

alanine transaminase [2] = test: Comparative hepatotoxicity in the mouse (plasma alanine transaminase); format: in vivo
Description: […]. Plasma was prepared and the livers and kidneys excised and weighed.
Samples of plasma were also analysed for the enzyme alanine transaminase, an indicator of hepatotoxicity. […]

L1210 tumour = test: Treatment of L1210 tumour-bearing mice; format: in vivo, mouse
Description: (§1) The L1210 tumour is carried routinely in DBA2 mice at the Institute of Cancer Research (L1210/CBRI). For experiments 5×10^4 cells were implanted i.p. into male C57Bl×DBA2 F1 hybrid mice 3 days prior to treatment. […] The control group consisted of 9 mice and treated groups 6 or 7 mice.

[3] = Comparative pharmacokinetics in the mouse (plasma, liver, kidney levels); format: in vivo; details: for concentration at 3 h / concentration at 6 h: plasma, ip, read-out: Plasma quinazoline conc.
Description: 3 Hours and 6 hours after administration groups of three mice at each dose level were sacrificed by exsanguination via cardiac puncture. Plasma was prepared and the livers and kidneys excised and weighed.

[4] = system: de novo thymidylate synthesis in L1210 cells; test: Incorporation of 3H dUrd into acid-precipitable material in L1210 cells; format: cell-based; details: Mus musculus, L1210, 10 min; 10 uM, by about 10 minutes
Description: L1210 cells were used at a concentration of 10^5 /ml. Incubation at 37° C. was in complete RPMI tissue culture medium plus or minus drugs for the lengths of time indicated on the graphs. After this time ^3 H dUrd was added at a concentration of 2 uCi/ml (about 0.2 uM). Three 1 ml aliquots were removed after 20 minutes, placed on ice and mixed with 1 ml of ice-cold phosphate buffered saline (PBS). Precipitation onto glass-fibre discs was performed by trichloroacetic acid washing followed by PBS. […] This is an indirect measurement of de novo thymidylate synthesis in whole cells. […] These concentrations are 10 times the ID50 values.

Pharmacokinetics in rats = details: 100 mg/kg 1 h i.v. infusion; for concentration: read-out: Plasma levels
Description: as §2, §3

[5] = Urinary and faecal elimination in the mouse; format: in vivo; details: 100 mg/kg i.p.; for dose excreted at 48 h: ip, 0-48 h
L1210 cells = test: Reversal of L1210 toxicity by co-incubation with thymidine; format: cell-based
Description: Cells in the log phase of growth were diluted to about 5×10^4 /ml and duplicate 5ml aliquots were added to 50 ml tissue culture flasks containing the appropriate additions (diluted in RPMI and sterilised by Millipore filtration). Cell counts after 48 hours of incubation were obtained by Coulter counting.

alanine transaminase [6] = test: Hepatotoxicity in rats (plasma alanine transaminase); details: 100 mg/kg 1 h i.v. infusion
Description: as §2, §3

[7] = Toxicity and weight loss in treated L1210 tumour-bearing mice; format: in vivo, mouse
Description: as §1

[8] = 100 mg/kg i.p., 3 h post-treatment
[9] = 100 mg/kg i.p., 6 h post-treatment
[10] = 300 mg/kg i.p., 3 h post-treatment
[11] = 300 mg/kg i.p., 6 h post-treatment
[12] = 500 mg/kg i.p., 3 h post-treatment
[13] = 500 mg/kg i.p., 6 h post-treatment
[14] = compound 5 uM + 10 uM thymidine

With `C#CCN(Cc1ccc2nc[nH]c(=O)c2c1)c1ccc(C(=O)N[C@@H](CCC(=O)O)C(=O)O)cc1` [CB3804, N-(4-(N-((3,4-dihydro-4-oxo-6-quinazolinyl)methyl)prop-2-ynylamino)benzoyl)-L-glutamic acid] as the molecule, how does the “L1210/C15 ID50” value (L1210/C15 cells) read?
The value was “no inhibition”.

And the hepatotoxicity (alanine transaminase [1])?
The hepatotoxicity was “not hepatotoxic”.

And the “Plasma alanine transaminase level” value (alanine transaminase [2]; [8])?
Its value is 19 ± 3 U/L.

And the “Plasma alanine transaminase level” value (alanine transaminase [2]; [9])?
The value was 10 ± 6 U/L.

And the “Plasma alanine transaminase level” value (alanine transaminase [2]; [10])?
Its value is 10 ± 4 U/L.

What about the “Plasma alanine transaminase level” value (alanine transaminase [2]; [11]) of the same molecule?
The value was 8 ± 3 U/L.

What about the “Plasma alanine transaminase level” value (alanine transaminase [2]; [12]) of the same molecule?
Its value is 16 ± 3 U/L.

What about the “Plasma alanine transaminase level” value (alanine transaminase [2]; [13]) of the same molecule?
The value was 16 ± 2 U/L.

What about the “Levels of alanine transaminase (in words)” value (alanine transaminase [2]; mice i.p., normal range 5-25U/l) of the same molecule?
Its value is “within the normal range”.

And the hepatotoxicity (alanine transaminase [2]; mice, at the doses studied)?
Its hepatotoxicity is “not hepatotoxic”.

What about the anti-tumour effectiveness (L1210 tumour; 25 mg/kg i.p. daily ×5, versus other treatments) of the same molecule?
The anti-tumour effectiveness was “much less effective”.

And the “"cures" (survived >100 days)” value (L1210 tumour; 50 mg/kg i.p. daily ×5)?
The value was “about 65%”.

And the “"cures" (survived >100 days)” value (L1210 tumour; 100 mg/kg i.p. daily ×5)?
The value was “about 80%”.

What about the “anti-tumour activity compared with CB3717” value (L1210 tumour; in vivo) of the same molecule?
Its value is “comparable anti-tumour activity”.

And the Kidney quinazoline level [3, 8]?
The Kidney quinazoline level was < 0.1 % dose administered.

What about the Liver quinazoline level [3, 8] of the same molecule?
The Liver quinazoline level was < 0.1 % dose administered.

And the Kidney quinazoline level [3, 9]?
The Kidney quinazoline level was < 0.1 % dose administered.

What about the Liver quinazoline level [3, 9] of the same molecule?
Its Liver quinazoline level is < 0.1 % dose administered.

And the Kidney quinazoline level [3, 10]?
The Kidney quinazoline level was < 0.03 % dose administered.

And the Liver quinazoline level [3, 10]?
Its Liver quinazoline level is < 0.03 % dose administered.

What about the Kidney quinazoline level [3, 11] of the same molecule?
Its Kidney quinazoline level is < 0.03 % dose administered.

What about the Liver quinazoline level [3, 11] of the same molecule?
Its Liver quinazoline level is < 0.03 % dose administered.

And the Kidney quinazoline level [3, 12]?
Its Kidney quinazoline level is < 0.1 % dose administered.

What about the Liver quinazoline level [3, 12] of the same molecule?
The Liver quinazoline level was < 0.2 % dose administered.

What about the Kidney quinazoline level [3, 13] of the same molecule?
The Kidney quinazoline level was < 0.1 % dose administered.

And the Liver quinazoline level [3, 13]?
Its Liver quinazoline level is < 0.2 % dose administered.

What about the “detection in plasma, liver and kidneys” value ([3]; mice, 3 and 6 hours after i.p. dose, for CB3804 except plasma 3 h at 500 mg/kg) of the same molecule?
The value was “below the limit of detection”.

What about the “accumulation in the kidneys” value ([3]; mouse, in vivo) of the same molecule?
Its value is “does not apparently accumulate in the kidneys”.

And the concentration at 3 h ([3]; mouse, 100 mg/kg i.p., 3 h post-treatment)?
The concentration at 3 h was < 5 µM.

What about the concentration at 6 h ([3]; mouse, 100 mg/kg i.p., 6 h post-treatment) of the same molecule?
The concentration at 6 h was < 5 µM.

And the concentration at 3 h ([3]; mouse, 300 mg/kg i.p., 3 h post-treatment)?
Its concentration at 3 h is < 5 µM.

And the concentration at 6 h ([3]; mouse, 300 mg/kg i.p., 6 h post-treatment)?
The concentration at 6 h was < 5 µM.

What about the concentration at 3 h ([3]; mouse, 500 mg/kg i.p., 3 h post-treatment) of the same molecule?
The concentration at 3 h was 5 µM.

And the concentration at 6 h ([3]; mouse, 500 mg/kg i.p., 6 h post-treatment)?
Its concentration at 6 h is < 5 µM.

And the activity at 10 µM [4]?
Its activity at 10 µM is < 20%.

And the “detection in liver or kidneys at the end of the experiment” value (Pharmacokinetics in rats; rats)?
The value was “no CB3804 could be detected”.

What about the Kidney level (Pharmacokinetics in rats; individual rats) of the same molecule?
Its Kidney level is < 0.5 % dose.

What about the Liver level (Pharmacokinetics in rats; individual rats) of the same molecule?
The Liver level was < 0.5 % dose.

What about the Cumulative biliary excretion (Pharmacokinetics in rats; individual rats, 100 mg/kg) of the same molecule?
Its Cumulative biliary excretion is 80 % dose.

What about the Cumulative urinary excretion (Pharmacokinetics in rats; individual rats, 100 mg/kg) of the same molecule?
The Cumulative urinary excretion was 7 % dose.

And the dose excreted (Pharmacokinetics in rats; rat, bile, iv, 100 mg/kg, Cumulative biliary excretion, individual rats)?
Its dose excreted is 72%.

And the concentration at 1 h (Pharmacokinetics in rats; rat, plasma, iv, 100 mg/kg, Plasma levels, end inf, individual rats)?
The concentration at 1 h was 274 µM.

What about the concentration at 2 h (Pharmacokinetics in rats; rat, plasma, iv, 100 mg/kg, Plasma levels, inf + 1 h, individual rats) of the same molecule?
The concentration at 2 h was 10 µM.

What about the concentration at 3 h (Pharmacokinetics in rats; rat, plasma, iv, 100 mg/kg, Plasma levels, inf + 2 h, individual rats) of the same molecule?
Its concentration at 3 h is < 2000 nM.

And the concentration at 4 h (Pharmacokinetics in rats; rat, plasma, iv, 100 mg/kg, Plasma levels, inf + 3 h, individual rats)?
Its concentration at 4 h is < 2000 nM.

What about the concentration at 5 h (Pharmacokinetics in rats; rat, plasma, iv, 100 mg/kg, Plasma levels, inf + 4 h, individual rats) of the same molecule?
Its concentration at 5 h is < 2000 nM.

And the concentration at 0.5 h (Pharmacokinetics in rats; rat, plasma, iv, 100 mg/kg, Plasma levels, mid inf, individual rats)?
The concentration at 0.5 h was 275 µM.

What about the dose excreted (Pharmacokinetics in rats; rat, urine, iv, 100 mg/kg, Cumulative urinary excretion, individual rats) of the same molecule?
The dose excreted was 11%.

What about the concentration (Pharmacokinetics in rats; end inf, individual rats, 100 mg/kg, 60 min) of the same molecule?
The concentration was 256 µM.

What about the concentration (Pharmacokinetics in rats; inf + 1 h, individual rats, 120 min, 100 mg/kg, 120 min) of the same molecule?
Its concentration is 19 µM.

And the concentration (Pharmacokinetics in rats; inf + 2 h, individual rats, 180 min)?
Its concentration is < 2 µM.

And the concentration (Pharmacokinetics in rats; inf + 3 h, individual rats, 240 min)?
The concentration was < 2 µM.

And the concentration (Pharmacokinetics in rats; inf + 4 h, individual rats, 300 min)?
Its concentration is < 2 µM.

And the concentration (Pharmacokinetics in rats; mid inf, individual rats, 30 min, 100 mg/kg, 30 min)?
Its concentration is 258 µM.

What about the “bioavailability following i.p. administration” value [5] of the same molecule?
The value was “satisfactory bioavailability”.

What about the “components in faeces which may represent metabolites” value [5] of the same molecule?
The value was “two components were observed in faeces”.

And the dose excreted at 48 h ([5]; faeces, read-out: Faecal excretion of the parent compound)?
Its dose excreted at 48 h is 15 ± 13%.

What about the dose excreted at 48 h ([5]; urine, read-out: Urinary excretion of the parent compound) of the same molecule?
The dose excreted at 48 h was 4 ± 1%.

What about the “Cell count at 48 hours as % control” value (L1210 cells; [14]) of the same molecule?
The value was 98 % control.

What about the “Reversal of L1210 toxicity by thymidine” value (L1210 cells; [14]) of the same molecule?
Its value is “reversal was complete”.

And the “Cell count at 48 hours as % control” value (L1210 cells; compound 50 uM + 10 uM thymidine)?
The value was 75 % control.

What about the “plasma levels of alanine transaminase (in words)” value (alanine transaminase [6]; rats) of the same molecule?
The value was “did not”.

What about the “Peak plasma alanine transaminase” value (alanine transaminase [6]; individual rats) of the same molecule?
Its value is 57 % pre treatment and 143 % pre treatment.

And the signs of toxicity ([7]; 200 mg/kg i.p. daily ×5)?
The signs of toxicity was “no obvious signs of toxicity”.

What about the weight loss ([7]; 200 mg/kg i.p. daily ×5) of the same molecule?
The weight loss was “no weight loss occurred”.

And the signs of toxicity ([7]; dose levels up to 200 mg/kg)?
The signs of toxicity was “No signs of toxicity were apparent”.
